# Patent US20250213700A1, “COMPOUNDS, COMPOSITIONS, AND METHODS FOR CELL-SPECIFIC PHARMACOLOGY” (Duke University, priority 2022, published 2025)
# Assays:
# [1] = test system: +HTP somatostatin interneurons and -HTP neurons of V1 visual cortex; test: 2P calcium imaging of V1 visual responses after contralateral ventricle infusion, SOM-Cre mice; assay type: in vivo, mouse
# Method: Top left: Mice expressing pan-neuronal GCaMP8s with SOM-specific ^+HTP. Window over V1. DART delivered via the contralateral ventricle. Bottom left: In-vivo and ex-vivo expression and dye capture. Right: Mice presented oriented visual gratings, 2P Ca^2+ imaging obtained before and 5-6 hr after infusion of 0.3 nmole Alexa647.1^DART.2+3 nmole YM90K.1^DART.2 (2 μL volume) into the contralateral ventricle.
# Next, it was examined whether this strategy could deliver a pharmacologically active DART to genetically defined cells. A surgery was performed in which AAV DIO +HTPGPI was injected into the V1 visual cortex of SOM-Cre mice for cell-specific expression in somatostatin interneurons, along with a co-injected AAV-GCaMP8s virus for pan-neuronal neural activity monitoring. A cannula was implanted in the contralateral ventricle, and glass window over V1. Following surgical recovery, a mixture of YM90K.1DART.2+Alexa647.1DART.2 was infused. […] To test for pharmacological effects, 2P calcium imaging of +HTP and −HTP was performed while mice were presented with oriented gratings. A reduction in +HTP visual response was apparent 4 hours post DART infusion. This reduction persisted even after 24 hours post infusion.
# GABAAR = test: VTA slice, evoked GABAAR IPSCs on midbrain dopamine neurons; assay type: cell-based, mouse; conditions: 300 nM (FIG. 4E)
# Description: FIG. 4A-4F show the DART.2 platform can enable safe use of epileptogenic pharmaceuticals in awake behaving animals. (FIG. 4A) Validation of gabazine.1^DART.2 in cerebellar slice. Top: voltage-clamp schematic. Bottom: tonic GABAAR in granule cells expressing ^+HTP or ^ddHTP. […] Data are mean±SEM, cells normalized to baseline. (FIG. 4B) In vivo delivery of gabazine.1^DART.2 to cerebellar granule cells. Top right: schematic of experimental approach, GCaMP6f granule-cell activity obtained in the absence of sensory stimuli. Top left: example field of view, GCaMP6f signal averaged across trials. Bottom: example calcium traces (ΔF/F) in an awake ^+HTP mouse before (baseline) and after (1 μL of 1 μM gabazine.1^DART.2) infusion. (FIG. 4C) In vivo, 1 μL of 1 μM gabazine.1^DART.2 to ^+HTP mice. Color indicates ΔF/F, each row is one cell before (left) and after (right) gabazine.1^DART.2 infusion. Full dataset from 6 mice (n=1707 cells, p<0.0001, paired t-test, before vs after infusion). (FIG. 4D) In vivo, 1 μL of 1 μM gabazine.1^DART.2 to ^ddHTP mice. Format as in panel C. Full dataset from 4 mice (n=1084 cells, p=0.76, paired t-test, before vs after infusion). (FIG. 4E) Validation of gabazine.7^DART.2 in VTA slice. Top: evoked-IPSC configuration. […] Data are mean±SEM, cells normalized to baseline. Control experiments confirmed the GABAAR specificity of the manipulation. […] Data are mean±SEM, normalized to baseline speed of each animal.
# Electrophysiology. Preparation of Brain slices: Mice (8-10 weeks) were injected AAV10 HaloTag™-dTomato to striatum or ventral tegmental area (VTA). After 3-5 weeks, mice were deeply anesthetized with isoflurane and euthanized by decapitation. Coronal brain slices ([…]) containing striatum or VTA were prepared by standard methods using a Vibratome (Leica, VT 1200S), in ice-cold high sucrose cutting solution containing (in mM) 220 sucrose, 3 KCl, 1.25 NaH2PO4, 25 NaHCO3, 12 MgSO4.7H2O, 10 glucose, and 0.2 CaCl2) bubbled with 95% O2 and 5% CO2. The slices were placed into modified artificial cerebrospinal fluid (aCSF) containing (in mM): 120 NaCl, 3.3 KCl, 1.23 NaH2PO4, 1 MgSO4, 2 CaCl2), 25 NaHCO3, and 10 glucose at pH 7.3, previously saturated with 95% O2 and 5% CO2. For recovery, the slices were incubated at 33° C. for 40-60 min in the bubbled ACSF solution and then allowed to cool to room temperature (22-24° C.) until the recordings were initiated.
# Whole-cell patch-clamp recording: The brain slices or retinas were perfused with bubbled aCSF at 29-30° C. with a 2 ml/min flow rate. Recordings were made by whole cell patch recording techniques using a Multiclamp 700B amplifier (Molecular Devices, Axon Instruments Inc., Union City, CA). The signals were filtered at 10 KHz and acquired using Digitate 1440A and pClamp 10.7 (Molecular Devices). […]
# [2] = 5-6 hr after infusion of 3 nmole with 0.3 nmole Alexa647.1DART.2
SMILES,"responses in +HTP SOM cells [1, 2]","responses in -HTP putative pyramidal cells [1, 2]",+HTP visual response ([1]; 4 hours post DART infusion),-HTP cells visual response ([1]; 24 hours post infusion),"+HTP cells visual response relative to pre-DART ([1]; 24 hours post infusion, 50% contrast)","evoked GABAAR current (IPSCs), +HTP neurons (GABAAR)","evoked GABAAR current (IPSCs), ddHTP cells (GABAAR)","evoked GABAAR current (IPSCs), +HTP neurons (GABAAR; listed as gabazine.7^DART.2)","evoked GABAAR current (IPSCs), ddHTP cells (GABAAR; listed as gabazine.7^DART.2)"
COc1cc(CCCCl)ccc1CCOCCNC(=O)c1ccc(CNC(=O)CCOCCOCCOCCOCCOCCOCCOCCOCCOCCOCCOCCOCCOCCOCCOCCOCCOCCOCCOCCOCCOCCOCCOCCOCCOCCOCCOCCOCCOCCOCCOCCOCCOCCOCCOCCOCCn2cc(COCCOCCOCCOCCOCCOCCNC(=O)CCCn3c(=O)c(=O)[nH]c4cc([N+](=O)[O-])c(-n5ccnc5)cc43)nn2)cc1 [YM90K.1DART.2],reduced,unchanged or increased,reduction,no change or increase in visual response,decrease in visual response,,,,
COc1cc(CCCCl)ccc1CCOCCNC(=O)c1ccc(CNC(=O)CCOCCOCCOCCOCCOCCOCCOCCOCCOCCOCCOCCOCCOCCOCCOCCOCCOCCOCCOCCOCCOCCOCCOCCOCCOCCOCCOCCOCCOCCOCCOCCOCCOCCOCCOCCOCCn2cc(COCCOCCOCCOCCOCCOCCOCCCCCCOc3ccc(-c4nn(CCCCC(=O)O)c(=N)cc4C)cc3)nn2)cc1 [gabazine.7DART.2],,,,,,pronounced block of evoked GABAAR current,no measurable effect on ddHTP cells,nearly complete block of evoked IPSCs,no impact on ^ddHTP cells
